Data taken from patent US20110218199A1, “PYRIDONEAMIDE DERIVATIVES, THEIR MANUFACTURE AND USE AS PHARMACEUTICAL AGENTS” (priority 2007, published 2011).
pIC50: −log10 of the molar value.

What was measured:
FAK Kinase Domain (KD) = target: T1, FAK Kinase Domain (KD) (Homo sapiens, UniProt Q05397); assay: IC50 determination for inhibitors of FAK (ELISA-type assay); type: biochemical; conditions: FAK kinase domain from baculo Sf9, biotinylated FAK-397 peptide, 10 μM ATP, 30 min, read-out: IC50 FAK inhibition
T1 construct: FAK Kinase Domain (KD) from baculo Sf9 was used; made in house; host or cells: baculovirus / Sf9 insect cells

HCT 116 cells = assay: CellTiter-Glo assay in HCT 116 cells (antiproliferative activity); type: cell-based; conditions: Homo sapiens, HCT-116, 120 h, CellTiter-Glo cell viability, HCT 116 human colon carcinoma, 5 days (120 h) incubation
Description: Antiproliferative Activity:
CellTiter-Glo™ Assay in HCT 116 Cells:
The CellTiter-Glo™ Luminescent Cell Viability Assay (Promega) is a homogeneous method of determining the number of viable cells in culture based on quantitation of the ATP present, which signals the presence of metabolically active cells.
HCT 116 cells (human colon carcinoma, ATCC-No. CCl-247) were cultivated in RPMI 1640 medium with GlutaMAX• I (Invitrogen, Cat-No. 61870-010), 5% Fetal Calf Serum (FCS, Sigma Cat-No. F4135 (FBS)); 100 Units/ml penicillin/100 μg/ml streptomycin (=Pen/Strep from Invitrogen Cat. No. 15140). For the assay the cells were seeded in 384 well plates, 1000 cells per well, in the same medium. The next day the test compounds were added in various concentrations ranging from 30 μM to 0.0015 μM (10 concentrations, 1:3 diluted). After 5 days the CellTiter-Glo™ assay was done according to the instructions of the manufacturer (CellTiter-Glo™ Luminescent Cell Viability Assay, from Promega). In brief: the cell-plate was equilibrated to room temperature for approximately 30 minutes and than the CellTiter-Glo™ reagent was added. The contents were carefully mixed for 15 minutes to induce cell lysis. After 45 minutes the luminescent signal was measured in Victor 2, (scanning multiwell spectrophotometer, Wallac).
1st. Day: • Medium: RPMI 1640 with GlutaMAX™ I (Invitrogen, Cat-Nr. 61870), 5% FCS (Sigma Cat.-No. F4135), Pen/Strep (Invitrogen, Cat No. 15140). • HCT116 (ATCC-No. CC1-247): 1000 cells in 60 μl per well of 384 well plate (Greiner 781098, μClear-plate white) • After seeding incubate plates 24 h at 37° C., 5% CO2
2nd. Day: Induction (Treatment with Compounds, 10 Concentrations):
In order to achieve a final concentration of 30 μM as highest concentration 3.5 μl of 10 mM compound stock solution were added directly to 163 μl media. Then step e) of the dilution procedure described below, was followed.
In order to achieve the second highest to the lowest concentrations, a serial dilution with dilution steps of 1:3 was followed according to the procedure (a-e) as described here below: • a) for the second highest concentration add 10 μl of 10 mM stock solution of compound to 20 μl dimethylsulfoxide (DMSO) • b) dilute 8×1:3 (always 10 μl to 20 μl DMSO) in this DMSO dilution row (results in 9 wells with concentrations from 3333.3 μM to 0.51 μM) • c) dilute each concentration 1: 47.6 (3.5 μl compound dilution to 163 μl media) • d) add 10 μl of every concentration to 60 μl media in the cell plate resulting in final concentration of DMSO: 0.3% in every well and resulting in 10 final concentration of compounds ranging from 30 μM to 0.0015 μM. • Each compound is tested in triplicate. • Incubate 120 h (5 days) at 37° C., 5% CO2 […]
Add 30 μl CellTiter-Glo™ Reagent (prepared from CellTiter-Glo™ Buffer and CellTiter-Glo™ Substrate (lyophilized) purchased from Promega) per well, shake 15 minutes at room temperature incubate further 45 minutes at room temperature without shaking
Victor 2 scanning multiwell spectrophotometer (Wallac), Luminescence mode (0.5 sec/read, 477 nm) Determine IC50 using a non-linear curve fit (XLfit software (ID Business Solution Ltd., Guilford, Surrey, UK))

T1 sequence (Q05397 422-680 limits assumed, species assumed): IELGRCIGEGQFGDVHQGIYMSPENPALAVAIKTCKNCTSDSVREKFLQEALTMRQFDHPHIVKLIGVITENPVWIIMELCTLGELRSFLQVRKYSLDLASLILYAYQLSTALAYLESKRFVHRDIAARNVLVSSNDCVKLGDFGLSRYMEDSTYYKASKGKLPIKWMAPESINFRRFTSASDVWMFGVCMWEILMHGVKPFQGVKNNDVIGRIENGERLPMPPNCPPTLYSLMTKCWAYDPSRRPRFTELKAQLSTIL

pIC50 (FAK Kinase Domain (KD)) | pIC50 (HCT 116 cells) | Structure (SMILES)
6.84 | 5.13 | O=C(Nc1ccc(N2CCOCC2)c(F)c1)c1c(NCc2ccccn2)cc[nH]c1=O [Example 1, 2-Oxo-4-[(pyridin-2-ylmethyl)-amino]-1,2-dihydro-pyridine-3-carboxylic acid(3-fluoro-4-morpholin-4-yl-phenyl)-amide]
6.67 | – | COc1ccc(NC(=O)c2c(NCCc3cccnc3)cc[nH]c2=O)cc1N1CCN(C)CC1 [Example 6aa, 2-Oxo-4-(2-pyridin-3-yl-ethylamino)-1,2-dihydro-pyridine-3-carboxylic acid [4-methoxy-3-(4-methyl-piperazin-1-yl)-phenyl]-amide]
7.03 | – | O=C(Nc1cccc(N2CCCC2)c1)c1c(NC[C@@H](O)c2ccccc2)cc[nH]c1=O [Example 2d, 4-((S)-2-Hydroxy-2-phenyl-ethylamino)-2-oxo-1,2-dihydro-pyridine-3-carboxylic acid (3-pyrrolidin-1-yl-phenyl)-amide]
